Reference: patent US12697340B2, “Compositions and methods for cellular ageing, stress resilience, autophagy, inflammation and longevity” (JUVN3 Holdings, LLC, priority 2018, dated 2026)

Columns and labels:
Format in all cases: cell-based
[1] = test system: LC3II/I ratio in C2C12 cells; test: Autophagy flux (LC3II/I ratio), C2C12 cells; conditions: 24 hours with 400 uM H2O2, FIG. 6A
Method: (§1) Treatments and cells. 6-hour and 24-hour cell culture treatments were with one of the following compounds: 1. Control or “vehicle” (DMSO+phosphate-buffered saline only); 2. Niagen (5 μg/mL); 3. BHB (beta hydroxybutyrate) (30 ug/mL); 4. CBD (cannabidiol) (5 ug/mL); 5. Olive leaf (5 ug/mL); 6. Dynamine (1 ug/mL); 7. Selenium (2 ug/mL); 8. Tributyrin (5 ug/mL)
(§2) Treatment materials and methods. C2C12 cells were treated with compounds 1-8 as listed above for 6 hours without hydrogen peroxide (H2O2) (termed “unperturbed cells” throughout); or cells were treated with compounds 1-8 above for 24 hours with a concomitant 400 uM hydrogen peroxide (H2O2).
Autophagy flux (or activity) was assessed by assaying the LC3II/I ratio. This assay has been deemed the “gold standard” in autophagy monitoring (see e.g., Autophagy, 2007 Nov.-Dec.; 3(6):542-5).
(§3) Western blot analysis was performed using antibodies that detected p-H2AX protein, LC3I, LC3II, 4HNE, and NLRP3 proteins in both the C2C12 and EOMA cells. Ponceau stain was used for protein staining.

4HNE in C2C12 cells = test: Oxidative stress (4HNE assay), C2C12 cells; conditions: C2C12 cells co-incubated with H2O2, FIG. 6C
Method: as §1, §2
Oxidative stress was assessed using the 4HNE assay which is a product of cellular lipid oxidation (see e.g., Am J Physiol Cell Physiol. 2016 Oct. 1; 311(4): C537-0543).
as §3

C2C12 cells = test: Total antioxidant capacity (TEAC assay), C2C12 cells with H2O2; conditions: C2C12 cells co-incubated with H2O2, FIG. 5B
Method: Treatments and cells. 6-hour and 24-hour cell culture treatments were with one of the following compounds: 1. Control or “vehicle” (DMSO+phosphate-buffered saline only); 2. […] (5 μg/mL); 3. BHB (beta hydroxybutyrate) (30 ug/mL); 4. […] Olive leaf (5 ug/mL); 6. Dynamine (1 ug/mL); 7. […] Tributyrin (5 ug/mL) Treatment materials and methods. […] Total antioxidant capacity was assessed using a Trolox equivalent antioxidant capacity (TEAC) assay.

| Structure (SMILES) | autophagy (LC3II/I ratio) [1] | cellular oxidative stress (4HNE) (4HNE in C2C12 cells) | total antioxidant capacity (Trolox) (C2C12 cells) | total antioxidant capacity (Trolox) (C2C12 cells; listed as Selenium) | total antioxidant capacity (Trolox) (C2C12 cells; listed as Tributyrin) |
| --- | --- | --- | --- | --- | --- |
| CC(O)CC(=O)O (stereo not drawn) [BHB, beta hydroxybutyrate] | increased autophagy | decrease cellular oxidative stress |  |  |  |
| [Se] [selenium] | increased autophagy |  | increase (e.g., restore) total antioxidant activity | increase or restore antioxidant capacity |  |
| C=C(C)[C@@H]1CCC(C)=C[C@H]1c1c(O)cc(CCCCC)cc1O [CBD, cannabidiol] | increased autophagy |  |  |  |  |
| CCCC(=O)OCC(COC(=O)CCC)OC(=O)CCC [tributyrin] |  |  | increase (e.g., restore) total antioxidant activity |  | increase or restore antioxidant capacity |
